Patent US12485100B2, “Treatment of menstrual cycle-induced symptoms” (Period Pill BV, priority 2019, dated 2025)
Entries after “also recorded” stand apart in the source; their conditions may differ.

Columns and labels:
[1] = system: women with menstrual cycle-induced symptoms (e.g. PMS, PMDD); test: Closed label trials of 3-MMC for menstrual cycle-induced symptoms (case reports of 11 women); assay type: in vivo, human
From the text: The following case studies exemplify some aspects of some embodiments of the methods of the present invention for treating perimenstrual disorders in subjects suffering at least one menstrual cycle-induced symptom by administering 3-MMC.
Detailed reports of 11 experiences of women with unlabeled (“pill”) 3-MMC for menstrual cycle-induced symptoms.
Between the second half of 2018 and the first months of 2019, eleven women participated in a blinded trial of 3-MMC (the “pill”) administered to alleviate their menstrual cycle-induced symptoms. The subjects tried different doses ranging from 12.5 mg. up to 50 mg.
Each one of the women used the 3-MMC for relief for at least two to three consecutive menstrual periods, with the number of trials varying from two to seven per woman, making a total of 45 trials.
Thus, the experience with 3-MMC for menstrual cycle-induced symptoms reported here is from […] separate trials.

[2] = animal models, cited from earlier work
[3] = 12.5 mg then 25 mg with an interval of five hours (Ana)
[4] = one dose of 12.5 mg plus one dose of 25 mg, total 37.5 mg
[5] = one dose of 12.5 mg, individual trials
[6] = one dose of 25 mg, individual trials
[7] = two doses of 12.5 mg (Ana: interval of five hours; Jenny: equivalent to 25 mg)
[8] = two doses of 25 mg, one hour interval, total 50 mg (Katy)

SMILES: CNC(C)C(=O)c1cccc(C)c1 (centres unmarked) [3-MMC, 3-methylmethcathinone]
- relief of symptoms at low dose (overview) ([1]; 12.5 mg): while not consistent, was often effective in providing relief of symptoms
- Psychological reaction [1, 3]: experienced less emotional distress and felt much calmer
- Side effects [1, 3]: an outbreak of acne
- Response summary of the subject ([1]; 37.5 mg dose): more aware of themself, more concentrated, energetic, daring, calmer, but they would still be irritated or angry; also recorded: Rebecca felt actually very good
- undesired side effects (overview) ([1]; 30-35 mg): some undesired side effects, such as tachycardia or temperature changes were occasionally more noticeable
- effect when administered in anticipation of symptoms ([1]; administration prior to symptom onset): can significantly reduce the intensity as well as duration of many menstrual cycle induced symptoms
- most commonly reported psychological and emotional effects ([1]; all subjects): enhanced their overall sense of well-being, increased energy levels, induced calmness and relaxation and heightened abilities of concentration; also recorded: a sense of relaxation and calm, often combined with heightened energy and ability to concentrate
- most commonly reported side effects ([1]; all subjects, 12.5-50 mg): tachycardia, sensation of body temperature changes (usually feeling warmer or sometimes colder) and sweating
- overall reported experience / relief of symptoms ([1]; eleven women, about 60 trials, doses 12.5 mg up to 50 mg): Ten out of the eleven reported a rather good to a very positive experience; also recorded: A desired positive effect was achieved with most trials; also recorded: provided relief from more than one of the reported menstrual cycle-induced symptoms
- side effects, individual subject's summary over all their doses ([1]; individual subjects, all doses taken): they never perceived non-desired side-effects; also recorded: increased heartbeat and stomach pain on empty stomach; also recorded: noticed body temperature changes; also recorded: an unfamiliar tingling at the back of the tongue and throat; also recorded: They experienced no side effects or physical reactions worth mentioning; also recorded: had no physical reactions or undesired side effects with any of the doses; also recorded: some light and non-desirable effects such as body temperature changes
- Psychological reaction [1, 4]: more willing to do things with an energetic flow that lasted up to four hours; also recorded: they could still sense anger and irritation, but now more in control; also recorded: They felt less irritated, less angry and more relaxed; also recorded: No perceived psychological effect; also recorded: felt very much calmer and much more relaxed than usual; also recorded: felt more awake, more energetic, more alive, therefore less tired and irritated
- Side effects [1, 4]: Accelerated heartbeat, dizziness, feeling hot and sweating and Accelerated heartbeat, sweating and lack of appetite and None and Sweating and appetite loss
- Psychological reaction [1, 5]: felt more emotionally stable after one hour, less oversensitive, less anxious and they had a slightly heightened mood and felt less depressed, not lethargic, down or exhausted anymore and They were no longer feeling down and exhausted and Exhaustion, feeling down, mood swings, feeling alone and helpless, over sensitive, powerlessness, forgetfulness, willing to cry and Experiencing less anxiety and nervousness, feeling calmer and not very focused, only a little and less irritable but not a major difference and more relaxed, less emotionally distressed and Calmer and more stable and less mood swings, less upset, less emotional and less tired and Ines felt calmer, less nervous and emotional and less distressed and tense and None (they felt no effect whatsoever with this small dose) and None and None, not better nor worse
- Side effects [1, 5]: perceived no negative physical reactions or side effects and Stomach pain and none and none (apart from feeling warmer) and Tingling tongue, light somnolence and None
- Psychological reaction [1, 6]: emotional distress, mood swings and anxiety decreased; also recorded: Ana felt calmer and more relaxed; also recorded: felt less angry and irritated; also recorded: they were more focused, having a heightened mood, they felt less helpless and more in control; also recorded: experienced no emotional distress or feeling down or any tension; also recorded: no longer feeling low, anxious or distressed; also recorded: feeling focused and motivated to study; also recorded: feeling focused and more concentrated; also recorded: they could focus and concentrate on their studies and was also more motivated; also recorded: they felt relaxed, calmer; also recorded: Fanny felt calmer and stable; also recorded: no longer feeling upset, felt a lot calmer; also recorded: Small, but transient improvement in their mood; also recorded: felt more relaxed, less tense; also recorded: feeling noticeably less upset and less sad; also recorded: Jenny felt better, less anxious, less unhappy; also recorded: felt better and more relaxed; also recorded: Her sadness faded away; also recorded: relief of the sadness, not down or stressed anymore; also recorded: experienced slightly less tension; also recorded: a bit calmer, after two hours very relaxed, not crying anymore
- Side effects [1, 6]: none and None and stomach ache (on an empty stomach) and a higher heart rate and Cold hands and feet and drowsiness and some muscle pain or tension and Temporal slight stomach and muscle pain and Perceived body temperature changes, tingling sensation in the throat and Difficulty to go to sleep and somewhat tired and body temperature changes
- interaction with paracetamol ([1]; one subject (Bea), 12.5 mg 3-MMC combined with paracetamol): did not experience any undesirable interactions with the 3-MMC; also recorded: without any noticeable substance interaction or undesired effect
- side effects with repeated use ([1]; repeated use): side-effects tend to diminish over time with repeated use of 3-MMC
- effect when administered after onset of symptoms ([1]; some subjects): 3-MMC was effective even when administered after the onset of menstrual cycle-induced symptoms
- effect on somatic symptoms ([1]; some subjects (e.g. headache, physical pain)): administration of 3-MMC resulted in disappearance of somatic symptoms (e.g. headache); also recorded: can also produce a reduction in somatic symptoms (e.g. physical pain); also recorded: some of the subjects reported alleviation of somatic symptoms
- perceived effect ([1]; subject Gertie, 40 mg in one intake): a bit too much
- perceived benefit ([1]; subject Gertie, doses between 10 mg and 20 mg): They didn't perceive any benefit
- perceived benefit ([1]; subject Gertie, doses between 20 and 30 mg): They felt positive effects
- response and psychological effects ([1]; subject Gertie, one or two pills a couple of days before menstruation, usual dose 20-25 mg): feels less tense; also recorded: they are able to take decisions again; also recorded: a radical positive life change
- response summary ([1]; subject Ines, alternating doses of 12.5 mg and 25 mg, seven occasions): The main effect was calming and relaxing; also recorded: no significant dose response has been observed
- Psychological reaction [1, 7]: their emotional distress, feeling down, mood swings, helplessness and anxiety declined; also recorded: felt more energized, no longer down or sad
- Side effects [1, 7]: none and None
- Psychological reaction [1, 8]: no longer angry although they could still feel irritated; also recorded: They experienced reduced irritability and anger; also recorded: felt more energetic, less irritated and after two hours they were very calm
- Side effects [1, 8]: Increased heartbeat, sweating and loss of appetite; also recorded: No noticeable side effects; also recorded: a brief period (one hour) of depression
- cumulative positive effect of repeated administration ([1]; two or more consecutive doses within about 24 hours of each other): taking the pill two consecutive days made the effect of the second one last longer; also recorded: Possibly a cumulative effect; also recorded: a sort of a cumulative positive effect; also recorded: the positive effects of 3-MMC reportedly persisted; also recorded: positive effects persist
- time of peak serum concentrations ([2]; after oral administration): 5 to 10 min
- apparent plasma half-life ([2]; after oral ingestion): approximately 0.8 hours
